Key:
MRC5 [1] = test: Cytotoxicity against human MRC5 cells after 72 hrs by MTT assay; format: cell-based; details: MRC5, 72 h
A549 = test: Cytotoxicity against human A549 cells after 72 hrs by MTT assay; format: functional, cell-based; details: A549, 72 h
MRC5 [2] = test: Selectivity index, ratio of IC50 for human MRC5 cells to IC50 for human PC3 cells; format: functional
PC-3 = test: Cytotoxicity against human PC3 cells after 72 hrs by MTT assay; format: functional, cell-based; details: PC-3, 72 h

## O.O=C(N/N=C/c1cc(C[P+](c2ccccc2)(c2ccccc2)c2ccccc2)ccc1O)c1ccccc1.[Cl-]
MRC5 [1]
  IC50: 12.2 µM
A549
  IC50: > 30 µM
MRC5 [2]
  Ratio IC50: 0.85
PC-3
  IC50: 14.4 µM

## O=Cc1cc(C[P+](c2ccccc2)(c2ccccc2)c2ccccc2)ccc1O
MRC5 [1]
  IC50: > 30 µM
A549
  IC50: > 30 µM
PC-3
  IC50: > 30 µM

— ChEMBL document CHEMBL3124797, “Copper complexes with phosphonium containing hydrazone ligand: topoisomerase inhibition and cytotoxicity study” (Eur J Med Chem, 2014)
